US8247211B2, “Glycopeptide antibiotics” (American Cyanamid Company, priority 2001, dated 2012)
In brackets after ≈: the same amount, converted by molar mass.

How the values were obtained:
Escherichia coli = assay: In vitro antibacterial evaluation: minimum inhibitory concentration (MIC), broth dilution method; assay type: cell-based; settings: 5×10^5 CFU/mL, 18 hours at 35° C.
How it was run: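 MIC read as lowest drug level preventing visible growth. Organisms at 5×10^5 CFU/mL were exposed to a 64-0.06 μg/mL dilution series in Muller-Hinton II […] following NCCLS broth dilution standard M7-A2.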

Streptococcus sp. = assay: as above; assay type: cell-based; settings: broth dilution, 5×10^5 CFU/mL, 18 hours at 35° C.
How it was run: (§1)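 Test strains, among them recent clinical isolates carrying methicillin, penicillin and/or vancomycin resistance, were inoculated at 5×10^5 CFU/mL. A broth dilution series spanning 64-0.06 μg/mL in Muller-Hinton II […] (NCCLS M7-A2) defined the MIC as the lowest growth-inhibiting concentration.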

Staphylococcus sp. = assay: as above; assay type: cell-based; settings: for MIC Staphylococcus aureus (ATCC 29213): strain ATCC 29213; for MIC Staphylococcus aureus (GC 1131): strain GC 1131; for MIC Staphylococcus aureus (GC 4541): strain GC 4541; for MIC Staphylococcus aureus (GC 4542): strain GC 4542; for MIC Staphylococcus aureus-SMITH (GC 4543): strain GC 4543; for MIC Staphylococcus aureus (GC 4544): strain GC 4544; for MIC Staphylococcus aureus (GC 4545): strain GC 4545; for MIC Staphylococcus haemolyticus (GC 4546): strain GC 4546; for MIC Coagulase Negative Staphylococcus (GC 4547): strain GC 4547; for MIC Coagulase Negative Staphylococcus (GC 4548): strain GC 4548; for MIC Coagulase Negative Staphylococcus (GC 4549): strain GC 4549; for MIC Coagulase Negative Staphylococcus (GC 4551): strain GC 4551; for MIC Coagulase Negative Staphylococcus (GC 6257): strain GC 6257; for MIC Coagulase Negative Staphylococcus (ID-3941): strain ID-3941
How it was run: as §1

Enterococcus sp. = assay: as above; assay type: cell-based; settings: broth dilution, 5×10^5 CFU/mL, 18 hours at 35° C.
How it was run: as §1

[1] = Anatomic pathology (heart and kidney histopathology) in mice; assay type: in vivo, CD-1 mice; settings: 20 mg/kg intravenously daily for 9 days, microscopic histopathology on day 10
How it was run: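 Juvenile CD-1 mice (20 days old; 5 vehicle, 5 treated) received glycopeptide antibiotic 20 mg/kg i.v. daily for 9 days. Necropsied tissues formalin-fixed, paraffin-embedded, H&E stained and examined microscopically; findings graded slight to severe versus controls.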

[2] = system: Streptococcus pneumoniae (GC 1894), penicillin resistant strain; assay: Acute lethal infection in mice (ED50); assay type: in vivo; settings: female CD-1 mice, intraperitoneal challenge, intravenous dose 30 min. after infection, 7 day survival ratios
How it was run: (§2)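 Female CD-1 mice (20 ± 1-2 g) were infected intraperitoneally with enough bacteria, suspended in Trypticase Soy Broth or hog gastric mucin, to kill untreated controls within 24-48 hr. Compound in saline or 5% dextrose was given intravenously 30 min after infection. ED50 came from pooled 7-day survival over 3 tests.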

[3] = system: Staphylococcus aureus-SMITH (GC 4543); assay: Acute lethal infection in mice (ED50); assay type: in vivo; settings: female CD-1 mice, intraperitoneal challenge, intravenous dose 30 min. after infection, 7 day survival ratios
How it was run: as §2

[4] = system: Enterococcus faecalis (GC 6189), vancomycin resistant strain; assay: Acute lethal infection in mice (ED50); assay type: in vivo; settings: female CD-1 mice, intraperitoneal challenge, intravenous dose 30 min. after infection, 7 day survival ratios
How it was run: as §2

[5] = assay type: in vivo; settings: mice, 20 mg/kg intravenously daily for 9 days, serum on day 10
Protocol: 20-day-old CD-1 mice were divided into a vehicle control group (5 mice) and a treatment group (5 mice). Samples of glycopeptide antibiotics were administered at 20 mg/kg intravenously daily for 9 days. Animals were necropsied on day 10 Sera were analyzed for BUN (blood urea nitrogen), creatinine, AST (aspartic aminotransferase), and ALT (alanine aminotransferase) by routine, standard, automated methods using an Hitachi 747 chemistry analyzer.

[6] = broth dilution, 18 hours at 35° C.

## CC(c1ccccc1)C1NC(=O)CNC(=O)C(CO)NC(=O)C(C(O)C2CNC(=N)N2C2OC(CO)C(O)C(O)C2O)NC(=O)C(C(O)C2CNC(=N)N2)NC(=O)C(Cc2ccc(OC3OC(CO)C(OC4OC5COC(c6ccccc6)OC5C(O)C4O)C(O)C3O)cc2)NC1=O (stereo not drawn) [Example 104, Cyclo[glycyl-β-methylphenylalanyl-O-[4-O-(4,6-O-benzylidenehexopyranosyl)hexopyranosyl]-tyrosyl-3-(2-iminoimidazolidin-4-yl)seryl-3-(3-hexopyranosyl-2-iminoimidazolidin-4-yl)-serylseryl]]
Escherichia coli
  MIC Escherichia coli (GC 4560): 0.5 to 1 µg/mL
Streptococcus sp.
  MIC Streptococcus pneumoniae (GC 1894): <0.12 µg/mL
  MIC Streptococcus pneumoniae (GC 4565): <0.12 µg/mL
  MIC Streptococcus pneumonine (ATCC 6301): <0.12 µg/mL
  MIC Streptococcus pyogenes (GC 4563): <0.12 µg/mL
Staphylococcus sp.
  MIC Staphylococcus aureus (ATCC 29213): 1 µg/mL (≈ 0.723 µM)
  MIC Staphylococcus aureus (GC 1131): 2 µg/mL (≈ 1.45 µM)
  MIC Staphylococcus aureus (GC 4541): 1 µg/mL (≈ 0.723 µM)
  MIC Staphylococcus aureus (GC 4542): 0.5 µg/mL (≈ 0.361 µM)
  MIC Staphylococcus aureus (GC 4544): 1 µg/mL (≈ 0.723 µM)
  MIC Staphylococcus aureus (GC 4545): 0.5 to 1 µg/mL
  MIC Staphylococcus haemolyticus (GC 4546): 0.5 µg/mL (≈ 0.361 µM)
  MIC Coagulase Negative Staphylococcus (GC 4547): 1 µg/mL (≈ 0.723 µM)
  MIC Coagulase Negative Staphylococcus (GC 4548): 0.5 to 1 µg/mL
  MIC Coagulase Negative Staphylococcus (GC 4549): 0.5 µg/mL (≈ 0.361 µM)
  MIC Coagulase Negative Staphylococcus (GC 4551): 1 µg/mL (≈ 0.723 µM)
  MIC Coagulase Negative Staphylococcus (GC 6257): 0.5 µg/mL (≈ 0.361 µM)
Staphylococcus sp.; strain GC 3051
  MIC Staphylococcus aureus (GC 3051): 1 µg/mL (≈ 0.723 µM)
Staphylococcus sp.; strain GC 3053
  MIC Staphylococcus aureus (GC 3053): 1 µg/mL (≈ 0.723 µM)
Staphylococcus sp.; 18 hours at 35° C.
  MIC Staphylococcus aureus-SMITH (GC 4543): 0.5 to 1 µg/mL
Staphylococcus sp.; [6]
  MIC Staphylococcus aureus-SMITH (GC 4543): 0.5 to 1 µg/mL
  MIC Staphylococcus haemolyticus (GC 4546): 0.5 µg/mL (≈ 0.361 µM)
  MIC Coagulase Negative Staphylococcus (GC 4547): 1 µg/mL (≈ 0.723 µM)
  MIC Coagulase Negative Staphylococcus (GC 4548): 0.5 to 1 µg/mL
  MIC Coagulase Negative Staphylococcus (GC 4549): 0.5 µg/mL (≈ 0.361 µM)
  MIC Coagulase Negative Staphylococcus (GC 4551): 1 µg/mL (≈ 0.723 µM)
  MIC Coagulase Negative Staphylococcus (GC 6257): 0.5 µg/mL (≈ 0.361 µM)
Enterococcus sp.
  MIC Enterococccus avium (GC 4558): 2 to 4 µg/mL
  MIC Enterococccus faecalis (ATCC 29212): 2 to 4 µg/mL
  MIC Enterococccus faecalis (GC 2691): 4 µg/mL (≈ 2.89 µM)
  MIC Enterococccus faecalis (GC 3059): 4 µg/mL (≈ 2.89 µM)
  MIC Enterococccus faecalis (GC 4552): 4 µg/mL (≈ 2.89 µM)
  MIC Enterococccus faecalis (GC 4553): 4 µg/mL (≈ 2.89 µM)
  MIC Enterococccus faecalis (GC 4554): 4 µg/mL (≈ 2.89 µM)
  MIC Enterococccus faecalis (GC 6189): 2 µg/mL (≈ 1.45 µM)
  MIC Enterococccus faecium (GC 2243): 2 µg/mL (≈ 1.45 µM)
  MIC Enterococccus faecium (GC 4556): 2 to 4 µg/mL
  MIC Enterococccus faecium (GC 4557): 2 µg/mL (≈ 1.45 µM)
  MIC Enterococcus faecalis (GC 2242): 2 µg/mL (≈ 1.45 µM)
[1]
  Anatomical Pathology (Day 10), Heart: +++
  Anatomical Pathology (Day 10), Kidney: +++
[2]
  median effective dose (ED50), Streptococcus pneumoniae (GC 1894): 0.22 mg/kg
[3]
  median effective dose (ED50), Staphylococcus aureus-SMITH (GC 4543): 0.19 mg/kg
[4]
  median effective dose (ED50), Enterococcus faecalis (GC 6189): 0.39-0.63
[5]
  Clinical Chemistry (Day 10) % of Control, AST: +87%
  Clinical Chemistry (Day 10) % of Control, Creatinine: +65%

## CC(c1ccccc1)C1NC(=O)CNC(=O)C(CO)NC(=O)C(C(O)C2CNC(=N)N2C2OC(CO)C(O)C(O)C2O)NC(=O)C(C(O)C2CNC(=N)N2)NC(=O)C(Cc2ccc(OC3OC(CO)C(OC4OC5COC(C6CCCCC6)OC5C(O)C4O)C(O)C3O)cc2)NC1=O (stereo not drawn) [Example 112]
Escherichia coli
  MIC Escherichia coli (ATCC 25922): 32 µg/mL (≈ 23 µM)
  MIC Escherichia coli (GC 4559): >16 µg/mL
  MIC Escherichia coli (GC 4560): 1 µg/mL (≈ 0.72 µM)
Streptococcus sp.
  MIC Streptococcus agalactiae (GC 4564): <0.12 µg/mL
  MIC Streptococcus pneumoniae (GC 4565): <0.12 µg/mL
  MIC Streptococcus pyogenes (GC 4563): <0.12 µg/mL
  MIC Streptococcus pyogenes (ID-3187): 0.5 µg/mL (≈ 0.36 µM)
Staphylococcus sp.
  MIC Staphylococcus aureus (ATCC 29213): 1 µg/mL (≈ 0.72 µM)
  MIC Staphylococcus aureus (GC 1131): 0.5 to 1 µg/mL
  MIC Staphylococcus aureus (GC 4541): 1 µg/mL (≈ 0.72 µM)
  MIC Staphylococcus aureus (GC 4542): 1 µg/mL (≈ 0.72 µM)
  MIC Staphylococcus aureus (GC 4544): 0.5 to 2 µg/mL
  MIC Staphylococcus aureus (GC 4545): 1 to 2 µg/mL
  MIC Staphylococcus haemolyticus (GC 4546): 1 µg/mL (≈ 0.72 µM)
  MIC Coagulase Negative Staphylococcus (GC 4547): 0.5 to 1 µg/mL
  MIC Coagulase Negative Staphylococcus (GC 4548): 0.5 to 1 µg/mL
  MIC Coagulase Negative Staphylococcus (GC 4549): 0.5 to 1 µg/mL
  MIC Coagulase Negative Staphylococcus (GC 4551): 0.5 to 1 µg/mL
  MIC Coagulase Negative Staphylococcus (GC 6257): 1 µg/mL (≈ 0.72 µM)
  MIC Coagulase Negative Staphylococcus (ID-3941): 0.5 µg/mL (≈ 0.36 µM)
Staphylococcus sp.; [6]
  MIC Staphylococcus aureus (ATCC 29213): 1 µg/mL (≈ 0.72 µM)
  MIC Staphylococcus aureus (GC 1131): 0.5 to 1 µg/mL
  MIC Staphylococcus aureus (GC 4541): 1 µg/mL (≈ 0.72 µM)
  MIC Staphylococcus aureus (GC 4542): 1 µg/mL (≈ 0.72 µM)
  MIC Staphylococcus aureus-SMITH (GC 4543): 0.5 to 1 µg/mL
  MIC Staphylococcus aureus (GC 4544): 0.5 to 2 µg/mL
  MIC Staphylococcus aureus (GC 4545): 1 to 2 µg/mL
  MIC Staphylococcus haemolyticus (GC 4546): 1 µg/mL (≈ 0.72 µM)
  MIC Coagulase Negative Staphylococcus (GC 4547): 0.5 to 1 µg/mL
  MIC Coagulase Negative Staphylococcus (GC 4548): 0.5 to 1 µg/mL
  MIC Coagulase Negative Staphylococcus (GC 4549): 0.5 to 1 µg/mL
  MIC Coagulase Negative Staphylococcus (GC 4551): 0.5 to 1 µg/mL
  MIC Coagulase Negative Staphylococcus (GC 6257): 1 µg/mL (≈ 0.72 µM)
  MIC Coagulase Negative Staphylococcus (ID-3941): 0.5 µg/mL (≈ 0.36 µM)
Staphylococcus sp.; 18 hours at 35° C.
  MIC Staphylococcus aureus-SMITH (GC 4543): 0.5 to 1 µg/mL
Enterococcus sp.
  MIC Enterococccus avium (GC 4558): 2 µg/mL (≈ 1.44 µM)
  MIC Enterococccus faecalis (ATCC 29212): 2 µg/mL (≈ 1.44 µM)
  MIC Enterococccus faecalis (GC 2691): 2 µg/mL (≈ 1.44 µM)
  MIC Enterococccus faecalis (GC 3059): 2 µg/mL (≈ 1.44 µM)
  MIC Enterococccus faecalis (GC 4552): 2 µg/mL (≈ 1.44 µM)
  MIC Enterococccus faecalis (GC 4553): 2 to 4 µg/mL
  MIC Enterococccus faecalis (GC 4554): 2 µg/mL (≈ 1.44 µM)
  MIC Enterococccus faecalis (GC 6189): 2 µg/mL (≈ 1.44 µM)
  MIC Enterococccus faecium (GC 2243): 1 to 2 µg/mL
  MIC Enterococccus faecium (GC 4556): 2 µg/mL (≈ 1.44 µM)
  MIC Enterococccus faecium (GC 4557): 0.5 to 2 µg/mL
  MIC Enterococcus faecalis (GC 2242): 1 to 2 µg/mL
[2]
  median effective dose (ED50), Streptococcus pneumoniae (GC 1894): 0.02 mg/kg
[3]
  median effective dose (ED50), Staphylococcus aureus-SMITH (GC 4543): 0.07-0.08
[4]
  median effective dose (ED50), Enterococcus faecalis (GC 6189): 0.19-0.28
